Tests used:
[1] = Cyclic voltammetry (CV) in three-electrode cells; assay type: physicochemical; details: for Peak to peak potential difference (ΔEp) / Ratio of anodic peak current (Ipa) to cathodic peak current (Ipc) (Ipa/Ipc) @50 mV s^−1: 1st event (or only value); for peak-to-peak potential difference (ΔEp): maintained for 100 CV cycles; for anodic-to-cathodic peak current ratio (Ipa/Ipc): preserved during 100 CV cycles; for potential shift after CV cycles: FIG. 7
Experimental: All electrochemical examinations were carried out using a Biologic VMP3 electrochemical workstation in an Ar-filled glove box (MOTek, negligible O2 and H2O, tested by the ketyl solution).
Cyclic voltammetry (CV) was conducted in three-electrode cells comprised of glassy carbon (GC; diameter (d)=3 mm) as the working electrode (WE), a platinum wire as the counter electrode (CE), and a leak-free Ag/AgCl as the reference electrode (RE). The GC electrodes were polished using alumina slurry before testing (ALS Co., Ltd).
After CV analysis, ferrocene (Fc, ferrocene, 98%, Sigma-Aldrich) was added to the cell to measure its redox potential, and the measured sample potential was converted to the Fc/Fc^+.

[2] = Rotating disk electrode LSV, diffusion coefficient (Levich equation); assay type: physicochemical
Experimental: To measure diffusion coefficient (D), rotating disk electrode (RDE; ALS Co., Ltd) measurements were conducted with the same three-electrode cells. […] Limited mass-transport provides a current plateau (iL) of redox processes, which is linearly proportional to the square root of the rotating rates (ω^1/2). The diffusion coefficient (D) was calculated by plotting IL as a function of ω^1/2 and through the Levich equation (equation S1). iL=0.620nFAD^2/3ω^1/2η^−1/6Co (equation S1)
where IL is the limiting current (A cm^−2), n is the number of electrons transferred during the redox reaction, F is the Faraday's constant (96485 C mol^−1), A is the area of the electrode (0.0707 cm^2), D is the diffusion coefficient (cm^2 […]), ω is the angular rotation rate (rad s^−1), η is the kinematic viscosity (0.00442 cm^2 s^−1, referred to 0.1 M TBAPF6/MeCN), and Co is the concentration of the sample chemical.

[3] = Electron-transfer rate from CV curves (Nicholson method); assay type: physicochemical
Experimental: The electron-transfer rate (k^0) was calculated from CV curves and using the Nicholson method(equation S2).
where k^o is the electron-transfer constant (cm/s), D is the diffusion coefficient estimated from the above RDE studies, R is the gas constant (8.314 J K^−1 mol^−1), T is the temperature (298 K), v is the scan rate of the CVs (mV s^−1).
The Ψ value was obtained by Kingler and Kochi relation (equation S3).
where ΔEp is the peak-to-peak potential for the corresponding reduction or oxidation event.

[4] = Solubility test (UV-vis calibration curves, maximum solubility); details: for solubility: organic solvent or mixture, thermodynamic from solid
[5] = after 100 cycles (in parentheses)
[6] = initial, 10 mM in 0.1 M TBABF4/MeCN
[7] = 1st redox event (or the only value given), 10 mM in 0.1 M TBABF4/MeCN
[8] = 1st event (single value for BTMAP-Fc), after 100 cycles (in parentheses)
[9] = 1st event (single value for BTMAP-Fc), initial
[10] = 1st redox event (single value for BTMAP-Fc), 4 mM in 0.1 M TBATFSI/MeCN
[11] = first redox event (single event for BTMAP-Fc), CV, 4 mM in 0.1 M TBATFSI/MeCN
[12] = c1, first cathodic event (single value for BTMAP-Fc, oxidation process)
[13] = 2nd event, after 100 cycles (in parentheses)
[14] = 2nd redox event, 10 mM in 0.1 M TBABF4/MeCN
[15] = MeCN, Solubility (M) in MeCN, in MeCN

Compound: Cn1c(-c2cc[n+](C)cc2)nc2ccccc21 [BIP^+·BF4^−, 1-methyl-4-(1-methyl-1H-benzo[d]imidazol-2-yl)pyridin-1-ium tetrafluoroborate]
- Peak to peak potential difference (ΔEp) [1, 5]: 99 (99) mV
- Ratio of anodic peak current (Ipa) to cathodic peak current (Ipc) (Ipa/Ipc) @50 mV s^−1 [1, 5]: 0.73
- Peak to peak potential difference (ΔEp) [1, 6]: 99 (99) mV
- Ratio of anodic peak current (Ipa) to cathodic peak current (Ipc) (Ipa/Ipc) @50 mV s^−1 [1, 6]: 0.71
- Formal potential (E^o′) [1, 7]: −1.41 V vs. Fc/Fc^+

Compound: C[n+]1ccc(-c2nc3ccccc3o2)cc1 [BOP^+·BF4^−, 4-(benzo[d]oxazol-2-yl)-1-methylpyridin-1-ium tetrafluoroborate]
- Peak to peak potential difference (ΔEp) [1, 5]: 1st = 105 (105) mV
- Ratio of anodic peak current (Ipa) to cathodic peak current (Ipc) (Ipa/Ipc) @50 mV s^−1 [1, 5]: 0.46
- Peak to peak potential difference (ΔEp) [1, 6]: 1st = 105 (105) mV
- Ratio of anodic peak current (Ipa) to cathodic peak current (Ipc) (Ipa/Ipc) @50 mV s^−1 [1, 6]: 0.79
- Formal potential (E^o′) [1, 7]: 1st = −1.15 V vs. Fc/Fc^+

Compound: C[N+](C)(C)CCC[c-]1cccc1.C[N+](C)(C)CCC[c-]1cccc1.O=S(=O)([N-]S(=O)(=O)C(F)(F)F)C(F)(F)F.O=S(=O)([N-]S(=O)(=O)C(F)(F)F)C(F)(F)F.[Fe+2] [BTMAP-Fc·2TFSI^−, 1,1′-bis[3-(trimethylammonio)propyl]ferrocene dibis-trifluoromethanesulfonimidate, reference compound]
- Ipa/Ipc @50 mV s^−1 [1, 8]: 1.03 (1.03)
- ΔEp [1, 8]: 149 (149) mV
- Ipa/Ipc @50 mV s^−1 [1, 9]: 1.03 (1.03)
- ΔEp [1, 9]: 149 (149) mV
- E^o′ [1, 10]: −0.03 V vs. Fc/Fc^+
- Formal potential (E^o′) [1, 11]: −0.03 V vs. Fc/Fc^+
- peak-to-peak potential difference (ΔEp) [1]: ~150 mV
- anodic-to-cathodic peak current ratio (Ipa/Ipc) [1]: about 1
- diffusion coefficient (D) ([2]; 0.1 M TBATFSI/MeCN): 2.0×10^−6 cm^2 s^−1
- D (diffusion coefficient) [2, 12]: 2.00 X10^−6 cm^2 s^−1
- electron-transfer constant (k^o) ([3]; 0.1 M TBATFSI/MeCN): 0.034 cm/s
- k^o (electron-transfer constant) [3, 12]: 0.034 cm/s

Compound: C[n+]1ccc(-c2nc3ccccc3s2)cc1 [BTP^+·BF4^−, 4-(benzo[d]thiazol-2-yl)-1-methylpyridin-1-ium tetrafluoroborate]
- solubility ([4]; 0.5 M TBABF4 in MeCN, maximum solubility in electrolyte solution, 0.5 M TBABF4/MeCN): 0.087 M
- Solubility (M) 0.5M TBAPF6/MeCN ([4]; electrolyte solution, head prints 0.5M TBAPF6/MeCN): 0.087 M
- Solubility (M) MeCN ([4]; in MeCN): 0.26 M
- Solubility (M) in MeCN ([4]; in MeCN): 0.26 M
- maximum solubility in MeCN ([4]; in MeCN): 0.26 M

Compound: C[n+]1ccc(-c2nc3ccccc3s2)cc1 [BTP^+·TFSI^−, 4-(benzo[d]thiazol-2-yl)-1-methylpyridin-1-ium bistriflimide]
- Ipa/Ipc @50 mV s^−1 [1, 8]: (0.99)
- ΔEp [1, 8]: 1st = 99 (99) mV
- Ipa/Ipc @50 mV s^−1 [1, 9]: 1st = 1.01
- ΔEp [1, 9]: 1st = 99 (99) mV
- E^o′ [1, 10]: 1st = −1.21 V vs. Fc/Fc^+
- Ipa/Ipc @50 mV s^−1 [1, 13]: (0.87)
- ΔEp [1, 13]: 84 mV
- Ipa/Ipc @50 mV s^−1 ([1]; 2nd event, initial): 2nd = 0.95
- ΔEp ([1]; 2nd event, initial): 93 mV
- E^o′ ([1]; 2nd redox event, 4 mM in 0.1 M TBATFSI/MeCN): 2nd = −1.90 V vs. Fc/Fc^+
- Formal potential (E^o′) [1, 11]: −1.21 V vs. Fc/Fc^+
- peak-to-peak potential difference (ΔEp) [1]: ~99 mV
- anodic-to-cathodic peak current ratio (Ipa/Ipc) [1]: 1.01
- Formal potential (E^o′) ([1]; second redox event, CV, 4 mM in 0.1 M TBATFSI/MeCN): −1.90 V vs. Fc/Fc^+
- D (diffusion coefficient) [2, 12]: c1 = 3.71 X10^−6 cm^2 s^−1
- D (diffusion coefficient) ([2]; c2, second cathodic event): c2 = 3.32 X10^−6 cm^2 s^−1
- k^o (electron-transfer constant) [3, 12]: c1 = 0.086 cm s^−1
- k^o (electron-transfer constant) ([3]; c2, second cathodic event): c2 = 0.090 cm s^−1
- solubility ([4]; 0.5 M TBATFSI in MeCN, Solubility 0.5M TBATFSI/MeCN (M), electrolyte solution 0.5M TBATFSI/MeCN): 0.47 M
- solubility ([4]; 0.5 M TBATFSI in MeCN, maximum solubility in electrolyte solution, 0.5 M TBATFSI/MeCN): 0.47 M
- solubility ([4]; MeCN, Solubility MeCN (M), in MeCN): 1 M

Compound: CCCCCCCCCC[n+]1ccc(-c2nc3ccccc3s2)cc1 [Dec-BTP^+·BF4^−, 4-(benzo[d]thiazol-2-yl)-1-decylpyridin-1-ium tetrafluoroborate]
- Peak to peak potential difference (ΔEp) [1, 5]: 102 mV
- Ratio of anodic peak current (Ipa) to cathodic peak current (Ipc) (Ipa/Ipc) @50 mV s^−1 [1, 5]: 0.91
- Peak to peak potential difference (ΔEp) [1, 6]: 99 mV
- Ratio of anodic peak current (Ipa) to cathodic peak current (Ipc) (Ipa/Ipc) @50 mV s^−1 [1, 6]: 0.93
- Formal potential (E^o′) [1, 7]: 1st = −1.24 V vs. Fc/Fc^+
- Formal potential (E^o′) [1, 14]: 2nd = −1.96 V vs. Fc/Fc^+
- potential shift after CV cycles [1]: positive (+) potential shift
- solubility [4, 15]: 0.07 M

Compound: c1ccc2sc(-c3cc[n+](CCCCC[n+]4ccc(-c5nc6ccccc6s5)cc4)cc3)nc2c1 [Di-BTP^2+·2PF6^−, 1,1′-(pentane-1,5-diyl)bis(4-(benzo[d]thiazol-2-yl)pyridin-1-ium) hexafluorophosphate]
- solubility [4, 15]: 0.1 M

Compound: Cc1cc(-c2nc3ccccc3s2)cc(C)[n+]1C [DiMe-BTP^+·BF4^−, 4-(benzo[d]thiazol-2-yl)-1,2,6-trimethylpyridin-1-ium tetrafluoroborate]
- Peak to peak potential difference (ΔEp) [1, 5]: 81 mV
- Ratio of anodic peak current (Ipa) to cathodic peak current (Ipc) (Ipa/Ipc) @50 mV s^−1 [1, 5]: 0.88
- Peak to peak potential difference (ΔEp) [1, 6]: 89 mV
- Ratio of anodic peak current (Ipa) to cathodic peak current (Ipc) (Ipa/Ipc) @50 mV s^−1 [1, 6]: 0.89
- Formal potential (E^o′) [1, 7]: 1st = −1.33 V vs. Fc/Fc^+
- Formal potential (E^o′) [1, 14]: 2nd = −1.94 V vs. Fc/Fc^+
- cyclability in the CV profile ([1]; 100 CV cycles, FIGS. 6 and 7): excellent cyclability

Compound: CCCCCC[n+]1ccc(-c2nc3ccccc3s2)cc1 [Hex-BTP^+·BF4^−, 4-(benzo[d]thiazol-2-yl)-1-hexylpyridin-1-ium tetrafluoroborate]
- Peak to peak potential difference (ΔEp) [1, 5]: 124 mV
- Ratio of anodic peak current (Ipa) to cathodic peak current (Ipc) (Ipa/Ipc) @50 mV s^−1 [1, 5]: 0.99
- Peak to peak potential difference (ΔEp) [1, 6]: 125 mV
- Ratio of anodic peak current (Ipa) to cathodic peak current (Ipc) (Ipa/Ipc) @50 mV s^−1 [1, 6]: 0.98
- Formal potential (E^o′) [1, 7]: 1st = −1.36 V vs. Fc/Fc^+
- Formal potential (E^o′) [1, 14]: 2nd = −2.13 V vs. Fc/Fc^+
- potential shift after CV cycles [1]: positive (+) potential shift
- solubility [4, 15]: 0.23 M

Compound: COCC[n+]1ccc(-c2nc3ccccc3s2)cc1 [MOE-BTP^+·BF4^−, 4-(benzo[d]thiazol-2-yl)-1-(2-methoxyethyl)pyridin-1-ium tetrafluoroborate]
- Peak to peak potential difference (ΔEp) [1, 5]: 107 mV
- Ratio of anodic peak current (Ipa) to cathodic peak current (Ipc) (Ipa/Ipc) @50 mV s^−1 [1, 5]: 0.98
- Peak to peak potential difference (ΔEp) [1, 6]: 104 mV
- Ratio of anodic peak current (Ipa) to cathodic peak current (Ipc) (Ipa/Ipc) @50 mV s^−1 [1, 6]: 1.00
- Formal potential (E^o′) [1, 7]: 1st = −1.24 V vs. Fc/Fc^+
- Formal potential (E^o′) [1, 14]: 2nd = −1.97 V vs. Fc/Fc^+
- potential shift after CV cycles [1]: positive (+) potential shift
- solubility [4, 15]: 0.1 M

Compound: C[N+](C)(C)CCC[n+]1ccc(-c2nc3ccccc3s2)cc1 [TMAP-BTP^2+·2PF6^−, 4-(benzo[d]thiazol-2-yl)-1-(3-(trimethylammonio)propyl)pyridin-1-ium hexafluorophosphate]
- solubility ([4]; 0.5 M TBAPF6 in MeCN, maximum solubility in electrolyte solution, 0.5 M TBAPF6/MeCN): 0.026 M
- Solubility (M) MeCN ([4]; in MeCN): 0.25 M
- Solubility (M) in MeCN ([4]; in MeCN): 0.25 M
- maximum solubility in MeCN ([4]; in MeCN): 0.25 M
